What is called CC50 is the concentration that lowers cell viability or growth by half. A low value points to greater toxicity to the cells. For orientation: EC50 means the concentration that produces a half-maximal response.

One series concerns Vero cells. The series is described as follows: Toxicity on the same plates (ATPlite cell viability). The settings on record: Vero cells, same plates as DENV-2 antiviral assay. (ATP-based viability assays read luminescence as a measure of living cells.)
A further series deals with DENV-2 16681 strain. The series is described as follows: DENV-2 antiviral assay (eGFP-labeled virus in Vero cells). In kind it is cell-based, Dengue virus. Conditions: DENV-2 16681 eGFP, MOI 0.5, 3 days. As to the method: The antiviral activity of all the compounds of the invention was tested against the DENV-2 16681 strain which was labeled with enhanced green fluorescent protein (eGPF). The culture medium consists of minimal essential medium supplemented with 2% of heat-inactivated fetal calf serum, 0.04% gentamycin (50 mg/mL) and 2 mM of L-glutamine. Vero cells, obtained from ECACC, were suspended in culture medium and 25 μL was added to 384-well plates (2500 cells/well), which already contain the antiviral compounds. Typically, these plates contain a 5-fold serial dilution of 9 dilution steps of the test compound at 200 times the final concentration in 100% DMSO (200 nL). […] Finally, each plate contains wells which are assigned as virus controls (containing cells and virus in the absence of compound), cell controls (containing cells in the absence of virus and compound) and medium controls (containing medium in the absence of cells, virus and compounds). To the wells assigned as medium control, 25 μL of culture medium was added instead of Vero cells. Once the cells were added to the plates, the plates were incubated for 30 minutes at room temperature to allow the cells to distribute evenly within the wells. Next, the plates were incubated in a fully humidified incubator (37° C., 5% CO2) until the next day. Then, DENV-2 strain 16681, labeled with eGFP, was added at a multiplicity of infection (MOI) of 0.5. Therefore, 15 μL of virus suspension was added to all the wells containing test compound and to the wells assigned as virus control. In parallel, 15 μL of culture medium was added to the medium and cell controls. Next, the plates were incubated for 3 days in a fully humidified incubator (37° C., 5% CO2). At the day of the read out, the eGFP fluorescence was measured using an automated fluorescence microscope at 488 nm (blue laser). Using an in-house LIMS system, inhibition dose response curves for each compound were calculated and the half maximal effective concentration (EC50) was determined. Therefore, the percent inhibition (I) for every test concentration is calculated using the following formula: I=100*([…])/(SVC−SCC); ST, SCC and SVC are the amount of eGFP signal in the test compound, cell control and virus control wells, respectively. The EC50 represents the concentration of a compound at which the virus replication is inhibited with 50%, as measured by a 50% reduction of the eGFP fluorescent intensity compared to the virus control. The EC50 is calculated using linear interpolation (Table 1).

The nature of series [1]: Toxicity on the same plates (ATPlite cell viability). Conditions: African green monkey, CC50, Vero cells, same plates as DENV-2 antiviral assay.
Where [2] appears, read: Dengue virus, DENV2, Vero, 72 h.

For `COc1cc(NC(C(=O)c2c[nH]c3cc(F)c(C(F)(F)F)cc23)c2ccc(F)cc2OC)cc(OCCO)c1` (single isomer, unassigned) [Compound 3B, 2-(4-fluoro-2-methoxyphenyl)-1-(6-fluoro-5-(trifluoromethyl)-1H-indol-3-yl)-2-((3-(2-hydroxyethoxy)-5-methoxyphenyl)amino)ethanone], it took 7.8 µM to reach half-maximal cytotoxicity in the series with Vero cells (CC50). The same compound had a 50% effective concentration (EC50) in the series with DENV-2 16681 strain of 0.015 µM.

Consider `COc1cc(NC(C(=O)c2c[nH]c3c(C)cc(C(F)(F)F)cc23)c2ccc(Cl)cc2OC)cc(OCCO)c1` (single isomer, unassigned) [Compound 12B, 2-(4-chloro-2-methoxyphenyl)-2-((3-(2-hydroxyethoxy)-5-methoxyphenyl)amino)-1-(7-methyl-5-(trifluoromethyl)-1H-indol-3-yl)ethanone], for which it took 11 µM to reach half-maximal cytotoxicity in the series on Vero cells (CC50). The compound also yielded an EC50 with DENV-2 16681 strain of 0.038 µM.

On to `COc1cc(NC(C(=O)c2c[nH]c3cc(OC)c(OC(F)(F)F)cc23)c2ccc(Cl)cc2OC)cc(OCCO)c1` (single isomer, unassigned) [Compound 14B, 2-(4-chloro-2-methoxyphenyl)-2-((3-(2-hydroxyethoxy)-5-methoxyphenyl)amino)-1-(6-methoxy-5-(trifluoromethoxy)-1H-indol-3-yl)ethanone], for which the CC50 in the series on Vero cells was determined as 5.4 µM. Besides, in the series on DENV-2 16681 strain, a half-maximal effect (EC50) was put at 0.0072 µM.

`COc1cc(NC(C(=O)c2c[nH]c3ccc(C(F)(F)F)cc23)c2ccc(Cl)cc2OC)cc(OCCO)c1` (single isomer, unassigned) [Compound 9A, 2-(4-chloro-2-methoxyphenyl)-2-((3-(2-hydroxyethoxy)-5-methoxyphenyl)amino)-1-(5-(trifluoromethyl)-1H-indol-3-yl)ethanone] yielded a CC50 in series [1] of 3.5 µM. The compound also returned an EC50 in the series on DENV-2 16681 strain of 0.012 µM.

Compound `COc1cc(NC(C(=O)c2c[nH]c3ccc(OC(F)(F)F)cc23)c2ccc(F)cc2OC)cc(OCCO)c1` (racemic) [Compound 5, 2-(4-fluoro-2-methoxyphenyl)-2-((3-(2-hydroxyethoxy)-5-methoxyphenyl)amino)-1-(5-(trifluoromethoxy)-1H-indol-3-yl)ethanone] registered a CC50 in series [1] of 4.5 µM. Further, the EC50 in the series with DENV-2 16681 strain (setting [2]) was found to be 0.0005 µM.

Regarding `COc1cc(NC(C(=O)c2c[nH]c3ccc(OC(F)(F)F)cc23)c2ccc(F)cc2OC)cc(OCCO)c1` (single isomer, unassigned) [Compound 5A, 2-(4-fluoro-2-methoxyphenyl)-2-((3-(2-hydroxyethoxy)-5-methoxyphenyl)amino)-1-(5-(trifluoromethoxy)-1H-indol-3-yl)ethanone], the CC50 in series [1] is 5.4 µM. In the series with DENV-2 16681 strain, the EC50 was 0.03 µM.

`COc1cc(NC(C(=O)c2c[nH]c3c(C)cc(OC(F)(F)F)cc23)c2ccc(F)cc2OC)cc(OCCO)c1` (racemic) [Compound 8, 2-(4-fluoro-2-methoxyphenyl)-2-((3-(2-hydroxyethoxy)-5-methoxyphenyl)amino)-1-(7-methyl-5-(trifluoromethoxy)-1H-indol-3-yl)ethanone] came in with a cytotoxic concentration (CC50) in series [1] of 4.7 µM. This compound displayed a concentration for a half-maximal effect (EC50) in the series on DENV-2 16681 strain (setting [2]) of 0.00041 µM.

As to `COc1cc(NC(C(=O)c2c[nH]c3c(C)cc(C(F)(F)F)cc23)c2ccc(F)cc2OC)cc(OCCO)c1` (racemic) [Compound 4, 2-(4-fluoro-2-methoxyphenyl)-2-((3-(2-hydroxyethoxy)-5-methoxyphenyl)amino)-1-(7-methyl-5-(trifluoromethyl)-1H-indol-3-yl)ethanone], in series [1], it took 6.1 µM to reach half-maximal cytotoxicity (CC50). Moreover, a half-maximal effect in the series with DENV-2 16681 strain (setting [2]) (EC50) was put at 0.00062 µM.

In turn, `COc1cc(NC(C(=O)c2c[nH]c3cc(F)c(OC(F)(F)F)cc23)c2ccc(Cl)cc2OC)cc(OCCO)c1` (single isomer, unassigned) [Compound 15A, 2-(4-chloro-2-methoxyphenyl)-1-(6-fluoro-5-(trifluoromethoxy)-1H-indol-3-yl)-2-((3-(2-hydroxyethoxy)-5-methoxyphenyl)amino)ethanone] gave a CC50 in series [1] of 3.8 µM. Moreover, the EC50 in the series on DENV-2 16681 strain is 0.0099 µM.

On to `COc1cc(NC(C(=O)c2c[nH]c3ccc(C(F)(F)F)cc23)c2ccc(Cl)cc2OC)cc(OCCO)c1` (racemic) [Compound 9, 2-(4-chloro-2-methoxyphenyl)-2-((3-(2-hydroxyethoxy)-5-methoxyphenyl)amino)-1-(5-(trifluoromethyl)-1H-indol-3-yl)ethanone], for which the cytotoxic concentration (CC50) in series [1] amounted to 2.5 µM. The compound also returned an EC50 in the series with DENV-2 16681 strain (setting [2]) of 0.00029 µM.

With `COc1cc(NC(C(=O)c2c[nH]c3cc(OC)c(C(F)(F)F)cc23)c2ccc(F)cc2OC)cc(OCCO)c1` (single isomer, unassigned) [Compound 2B, 2-(4-fluoro-2-methoxyphenyl)-2-((3-(2-hydroxyethoxy)-5-methoxyphenyl)amino)-1-(6-methoxy-5-(trifluoromethyl)-1H-indol-3-yl)ethanone], half-maximal cytotoxicity in the series on Vero cells (CC50) was put at 6.8 µM. Besides, the EC50 in the series with DENV-2 16681 strain is 0.024 µM.

For `COc1cc(NC(C(=O)c2c[nH]c3cc(OC)c(OC(F)(F)F)cc23)c2ccc(F)cc2OC)cc(OCCO)c1` (single isomer, unassigned) [Compound 6B, 2-(4-fluoro-2-methoxyphenyl)-2-((3-(2-hydroxyethoxy)-5-methoxyphenyl)amino)-1-(6-methoxy-5-(trifluoromethoxy)-1H-indol-3-yl)ethanone], half-maximal cytotoxicity in the series with Vero cells (CC50) was put at 10 µM. This compound also returned an EC50 in the series with DENV-2 16681 strain of 0.098 µM.

On to `COc1cc(NC(C(=O)c2c[nH]c3cc(F)c(C(F)(F)F)cc23)c2ccc(Cl)cc2OC)cc(OCCO)c1` (single isomer, unassigned) [Compound 11B, 2-(4-chloro-2-methoxyphenyl)-1-(6-fluoro-5-(trifluoromethyl)-1H-indol-3-yl)-2-((3-(2-hydroxyethoxy)-5-methoxyphenyl)amino)ethanone], for which, in the series on Vero cells, the CC50 was found to be 2.7 µM. The compound further came in with an EC50 in the series with DENV-2 16681 strain of 0.015 µM.

In the series with Vero cells, `COc1cc(NC(C(=O)c2c[nH]c3ccc(C(F)(F)F)cc23)c2ccc(F)cc2OC)cc(OCCO)c1` (single isomer, unassigned) [Compound 1A, 2-(4-fluoro-2-methoxyphenyl)-2-((3-(2-hydroxyethoxy)-5-methoxyphenyl)amino)-1-(5-(trifluoromethyl)-1H-indol-3-yl)ethanone] returned a CC50 of 6.8 µM. The compound also came in with a half-maximal effective concentration (EC50) in the series on DENV-2 16681 strain of 0.064 µM.

With `COc1cc(NC(C(=O)c2c[nH]c3cc(F)c(OC(F)(F)F)cc23)c2ccc(F)cc2OC)cc(OCCO)c1` (single isomer, unassigned) [Compound 7A, 2-(4-fluoro-2-methoxyphenyl)-1-(6-fluoro-5-(trifluoromethoxy)-1H-indol-3-yl)-2-((3-(2-hydroxyethoxy)-5-methoxyphenyl)amino)ethanone], the CC50 in the series on Vero cells is 6.7 µM. A half-maximal effect in the series on DENV-2 16681 strain (EC50) was put at 0.025 µM.

As to `COc1cc(NC(C(=O)c2c[nH]c3c(C)cc(OC(F)(F)F)cc23)c2ccc(F)cc2OC)cc(OCCO)c1` (single isomer, unassigned) [Compound 8B, 2-(4-fluoro-2-methoxyphenyl)-2-((3-(2-hydroxyethoxy)-5-methoxyphenyl)amino)-1-(7-methyl-5-(trifluoromethoxy)-1H-indol-3-yl)ethanone], it took 6 µM to reach half-maximal cytotoxicity in the series on Vero cells (CC50). In the series on DENV-2 16681 strain, this compound yielded an EC50 of 0.031 µM.

Compound `COc1cc(NC(C(=O)c2c[nH]c3c(C)cc(OC(F)(F)F)cc23)c2ccc(Cl)cc2OC)cc(OCCO)c1` (single isomer, unassigned) [Compound 16B, 2-(4-chloro-2-methoxyphenyl)-2-((3-(2-hydroxyethoxy)-5-methoxyphenyl)amino)-1-(7-methyl-5-(trifluoromethoxy)-1H-indol-3-yl)ethanone] yielded a CC50 in the series on Vero cells of 3.6 µM. In the series on DENV-2 16681 strain, the EC50 is 0.015 µM.

Turning to `COc1cc(NC(C(=O)c2c[nH]c3ccc(OC(F)(F)F)cc23)c2ccc(Cl)cc2OC)cc(OCCO)c1` (single isomer, unassigned) [Compound 13B, 2-(4-chloro-2-methoxyphenyl)-2-((3-(2-hydroxyethoxy)-5-methoxyphenyl)amino)-1-(5-(trifluoromethoxy)-1H-indol-3-yl)ethanone], the CC50 with Vero cells was determined as 5.8 µM. For the same compound, the response in the series with DENV-2 16681 strain was half-maximal at 0.0072 µM (EC50).

Take `COc1cc(NC(C(=O)c2c[nH]c3c(C)cc(C(F)(F)F)cc23)c2ccc(F)cc2OC)cc(OCCO)c1` (single isomer, unassigned) [Compound 4A, 2-(4-fluoro-2-methoxyphenyl)-2-((3-(2-hydroxyethoxy)-5-methoxyphenyl)amino)-1-(7-methyl-5-(trifluoromethyl)-1H-indol-3-yl)ethanone]: the CC50 in the series on Vero cells was determined as 11 µM. This compound had a half-maximal effective concentration (EC50) with DENV-2 16681 strain of 0.063 µM.

(Values after patent US10646469B2, “Substituted indole derivatives as dengue viral replication inhibitors” (Janssen Pharmaceuticals, Inc., priority 2016, dated 2020).)
